This assay relates to P388 leukemia ip, CD2F1 mice, survival T/C. Kind of assay: NCI In Vivo Anticancer Drug Screen. Data for tumor model P388 Leukemia (intraperitoneal) in CD2F1 (CDF1) mice. The note with it: endpoint: median survival time, higher = longer survival. In short, it runs like this:
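Mice carrying the transplanted tumor received test compound or vehicle. Survival was recorded in each group, and the value is the treated-group measurement divided by that of the vehicle-treated control group.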

Setting [1] is: dose: 50.0 mg/kg/injection, schedule: Q01DX005 (ip), vehicle: saline with Tween-80.
Where [2] appears, read: dose: 100.0 mg/kg/injection, schedule: Q01DX005 (ip), vehicle: saline with Tween-80.
The mark [3] stands for this setting: dose: 200.0 mg/kg/injection, schedule: Q01DX005 (ip), vehicle: saline with Tween-80.
[4] abbreviates: dose: 50.0 mg/kg/injection, schedule: Q01DX005 (ip), vehicle: saline.
Where [5] appears, read: dose: 100.0 mg/kg/injection, schedule: Q01DX005 (ip), vehicle: saline.
Setting [6] is: dose: 200.0 mg/kg/injection, schedule: Q01DX005 (ip), vehicle: saline.

Each structure is given as a SMILES string. Several values for one entry are separate records, joined by “and”; a condition that tells them apart may be missing. Equal values may be shown once. Inconclusive results and toxic doses are left out.

`CCC1OC(=O)CC(O)C(C)C(OC2OC(C)C(O)C(N(C)C)C2O)C(CC=O)CC(C)C(=O)/C=C/C2(C)OC2C1C` (stereo not drawn): the T/C was 110 % of control (dose: 9.38 mg/kg/injection, schedule: Q01DX009 (ip), vehicle: Klucel (hydroxypropylcellulose) (HPC)); 95 % of control (dose: 9.4 mg/kg/injection, schedule: Q01DX009 (ip), vehicle: Klucel (hydroxypropylcellulose) (HPC)); 101 % of control and 119 % of control (dose: 18.75 mg/kg/injection, schedule: Q01DX009 (ip), vehicle: Klucel (hydroxypropylcellulose) (HPC)); 103 % of control (dose: 37.5 mg/kg/injection, schedule: Q01DX009 (ip), vehicle: Klucel (hydroxypropylcellulose) (HPC)); 101 % of control and 123 % of control (dose: 75.0 mg/kg/injection, schedule: Q01DX009 (ip), vehicle: Klucel (hydroxypropylcellulose) (HPC)); 124 % of control (dose: 150.0 mg/kg/injection, schedule: Q01DX009 (ip), vehicle: Klucel (hydroxypropylcellulose) (HPC)).
In the case of `Cc1ccccc1NC(=O)c1ccc([N+](=O)[O-])cc1`, the T/C runs as follows: (dose: 100.0 mg/kg/injection, schedule: Q01DX009 (ip), vehicle: saline with Tween-80) 100 % of control; (dose: 200.0 mg/kg/injection, schedule: Q01DX009 (ip), vehicle: saline with Tween-80) 104 % of control; (dose: 400.0 mg/kg/injection, schedule: Q01DX009 (ip), vehicle: saline with Tween-80) 90 % of control.
Turning to `Cc1ccccc1C1OC2=C(Nc3ccccc3N2)C1=O` (stereo not drawn), the T/C is, setting by setting: (dose: 60.0 mg/kg/injection, schedule: Q01DX005 (ip), vehicle: Klucel (hydroxypropylcellulose) (HPC)) 99 % of control; (dose: 120.0 mg/kg/injection, schedule: Q01DX005 (ip), vehicle: Klucel (hydroxypropylcellulose) (HPC)) 101 % of control; (dose: 240.0 mg/kg/injection, schedule: Q01DX005 (ip), vehicle: Klucel (hydroxypropylcellulose) (HPC)) 92 % of control.
In the case of `CCCCCCCCCCCCNc1ncnc2[nH]ncc12`, the T/C by setting is: under setting [1], 102 % of control; under setting [2], 98 % of control; under setting [3], 98 % of control.
Regarding `NC(=O)NC1CC2CCC1C2` (stereo not drawn), the T/C by setting is: under setting [4], 101 % of control; under setting [5], 101 % of control; under setting [6], 105 % of control.
As to `COC(=O)[C@H]1[C@H]2C[C@@H]3c4[nH]c5cc(OC)ccc5c4CCN3C[C@H]2C[C@@H](OC(=O)c2cccc(N)c2)[C@@H]1OC`, the T/C by setting is: under setting [1], 101 % of control; under setting [2], 97 % of control; under setting [3], 97 % of control.
In the case of `CCC1(CC(=O)O)OCCc2c1[nH]c1c(C)c(F)ccc21` (stereo not drawn), the T/C is 95 % of control (dose: 50.0 mg/kg/injection, schedule: Q01DX009 (ip), vehicle: Klucel (hydroxypropylcellulose) (HPC)); 96 % of control (dose: 100.0 mg/kg/injection, schedule: Q01DX009 (ip), vehicle: Klucel (hydroxypropylcellulose) (HPC)); 104 % of control (dose: 200.0 mg/kg/injection, schedule: Q01DX009 (ip), vehicle: Klucel (hydroxypropylcellulose) (HPC)).
Consider `CSc1nc2ncnc(N)c2[nH]1`, for which the T/C was 93 % of control under setting [1], 96 % of control under setting [2] and 108 % of control under setting [3].
On to `CNC(=O)c1nn(C)c(=O)[nH]c1=O`, for which the T/C was 97 % of control under setting [4], 103 % of control under setting [5] and 96 % of control under setting [6].
In the case of `Cc1cc2c(cc1C)C(=O)c1c(O)c3c(c(O)c1C2=O)C[C@@](O)(C(=O)CO)C[C@@H]3OC1CC(N)C(O)C(C)O1` (stereo partly drawn), the T/C was 115 % of control (dose: 0.39 mg/kg/injection, schedule: Q04DX003 (ip), vehicle: water); 115 % of control (dose: 0.78 mg/kg/injection, schedule: Q04DX003 (ip), vehicle: water); 110 % of control (dose: 1.56 mg/kg/injection, schedule: Q04DX003 (ip), vehicle: water); 151 % of control and 157 % of control (dose: 3.13 mg/kg/injection, schedule: Q04DX003 (ip), vehicle: water); 190 % of control (dose: 6.25 mg/kg/injection, schedule: Q04DX003 (ip), vehicle: water); 100 % of control (dose: 25.0 mg/kg/injection, schedule: Q04DX003 (ip), vehicle: water).
Regarding `CC(C)CC(NC(CCC(=O)O)C(=O)O)C(=O)O` (stereo not drawn), the T/C runs as follows: (dose: 2.25 mg/kg/injection, schedule: Q01DX005 (ip), vehicle: saline) 106 % of control; (dose: 4.5 mg/kg/injection, schedule: Q01DX005 (ip), vehicle: saline) 106 % of control; (dose: 9.0 mg/kg/injection, schedule: Q01DX005 (ip), vehicle: saline) 96 % of control; (dose: 18.0 mg/kg/injection, schedule: Q01DX005 (ip), vehicle: saline) 104 % of control.
As to `C=Cn1c([N+](=O)[O-])cnc1/C=C/c1ccc(C(=O)OCCN2CCCCC2)cc1`, the T/C is 90 % of control (dose: 100.0 mg/kg/injection, schedule: Q04DX002 (ip), vehicle: saline with Tween-80); 105 % of control (dose: 100.0 mg/kg/injection, schedule: Q04DX003 (ip), vehicle: Klucel (hydroxypropylcellulose) (HPC)); 90 % of control (dose: 200.0 mg/kg/injection, schedule: Q04DX002 (ip), vehicle: saline with Tween-80); 102 % of control (dose: 200.0 mg/kg/injection, schedule: Q04DX003 (ip), vehicle: Klucel (hydroxypropylcellulose) (HPC)); 90 % of control (dose: 400.0 mg/kg/injection, schedule: Q04DX002 (ip), vehicle: saline with Tween-80); 102 % of control (dose: 400.0 mg/kg/injection, schedule: Q04DX003 (ip), vehicle: Klucel (hydroxypropylcellulose) (HPC)).
On to `CCOC(=O)N(O)c1ccc(C)cc1C`, for which the T/C by setting is: under setting [1], 96 % of control; under setting [2], 102 % of control.
As to `O=C(Cc1nc2ccccc2[nH]1)C(F)(F)F`, the T/C runs as follows: (dose: 100.0 mg/kg/injection, schedule: Q01DX001 (ip), vehicle: Klucel (hydroxypropylcellulose) (HPC)) 104 % of control; (dose: 200.0 mg/kg/injection, schedule: Q01DX001 (ip), vehicle: Klucel (hydroxypropylcellulose) (HPC)) 94 % of control; (dose: 400.0 mg/kg/injection, schedule: Q01DX001 (ip), vehicle: Klucel (hydroxypropylcellulose) (HPC)) 101 % of control.
Consider `CC1OC(=S)N(c2cccc3ccccc23)C1=O` (stereo not drawn), for which the T/C is, setting by setting: (dose: 100.0 mg/kg/injection, schedule: Q01DX001 (ip), vehicle: saline with Tween-80) 93 % of control; (dose: 200.0 mg/kg/injection, schedule: Q01DX001 (ip), vehicle: saline with Tween-80) 90 % of control; (dose: 400.0 mg/kg/injection, schedule: Q01DX001 (ip), vehicle: saline with Tween-80) 94 % of control.
Regarding `O=C(Nc1ccc(CCc2ccc(NC(=O)C34CC5CC(CC(C5)C3)C4)cc2)cc1)C12CC3CC(CC(C3)C1)C2`, the T/C by setting is: under setting [1], 96 % of control; under setting [2], 90 % of control.
On to `CC1CC(=O)OC2CC(C)(C)CC(=O)C12` (stereo not drawn), for which the T/C (dose: 100.0 mg/kg/injection, schedule: Q01DX009 (ip), vehicle: saline) was 100 % of control; the T/C (dose: 200.0 mg/kg/injection, schedule: Q01DX009 (ip), vehicle: saline) is 100 % of control; the T/C (dose: 400.0 mg/kg/injection, schedule: Q01DX009 (ip), vehicle: saline) was 109 % of control.
`CCOC(=O)/N=[N+](\[O-])c1ccc(Br)cc1`: the T/C is 109 % of control (dose: 12.5 mg/kg/injection, schedule: Q01DX001 (ip), vehicle: Klucel (hydroxypropylcellulose) (HPC)); 115 % of control (dose: 25.0 mg/kg/injection, schedule: Q01DX001 (ip), vehicle: Klucel (hydroxypropylcellulose) (HPC)); 103 % of control (dose: 50.0 mg/kg/injection, schedule: Q01DX001 (ip), vehicle: Klucel (hydroxypropylcellulose) (HPC)).
For `c1ccc2c(c1)Nc1nccnc1[Se]2`, the T/C reads like this: (dose: 100.0 mg/kg/injection, schedule: Q04DX002 (ip), vehicle: Klucel (hydroxypropylcellulose) (HPC)) 100 % of control; (dose: 200.0 mg/kg/injection, schedule: Q04DX002 (ip), vehicle: Klucel (hydroxypropylcellulose) (HPC)) 101 % of control; (dose: 400.0 mg/kg/injection, schedule: Q04DX002 (ip), vehicle: Klucel (hydroxypropylcellulose) (HPC)) 101 % of control.
On to `CCN(CC)CCOc1ccc(C(C)=O)cc1`, for which the T/C by setting is: (dose: 25.0 mg/kg/injection, schedule: Q01DX005 (ip), vehicle: saline with Tween-80) 99 % of control; under setting [1], 92 % of control; under setting [2], 101 % of control.
